Starred links: 1 amine or outer side, 2 acyl side, 3 side chain; linkers in the order of their positions; H or OH if unused. Positions of bridges follow the written chain, without caps; N, C: chain ends. Non-standard residues stand in square brackets, D forms with d. Residues, ends and D or L forms follow the SMILES beside them. Chains are numbered I, II in the order given. Actinocin(9to1) = Cc1c2oc3c(C)ccc(C(=O)[*:1])c3nc-2c(C(=O)[*:2])c(N)c1=O; NMeV = CN[C@H](C(=O)O)C(C)C; Sar = CNCC(=O)O
Columns and labels:
CD4+ T cell clone = assay: Reactivity with a CD4+ T cell clone (HLA DRBI*1501); format: cell-based, human; settings: in association with HLA class II molecule DRBI*1501
Excerpt: This epitope is recognized in association with the HLA class II molecule DRBI*1501, which is fairly prevalent in most human populations.

[1] = system: CD8 CTL clone 5101.1999.23; assay: 51Cr release CTL assay, CD8 clone 5101.1999.23; format: cell-based, human; settings: autologous targets infected with wild-type HSV-2 in the presence of 5 μg/ml actinomycin D, E:T 20:1
[2] = system: CD8 CTL clone 1874.1991.22; assay: 51Cr release CTL assay, CD8 clone 1874.1991.22; format: cell-based, human; settings: autologous targets infected with wild-type HSV-2 in the presence of 5 μg/ml actinomycin D, E:T 20:1
[3] = system: CD8 CTL clone 5491.2000.48; assay: 51Cr release CTL assay, CD8 clone 5491.2000.48; format: cell-based, human; settings: autologous targets infected with wild-type HSV-2 in the presence of 5 μg/ml actinomycin D, E:T 20:1
[4] = system: genital HSV-2 lesion-infiltrating lymphocytes; settings: four of seven patients; Koelle et al., 1998; cited from earlier work
B1 cell line = assay: Proliferation of short-term HSV-specific B1 cell lines from seven HSV-2 infected adults; format: cell-based, human; settings: seven HSV-2 infected immunocompetent adults; positive = stimulation index >= 4.0
Protocol: For each subject, PBMC were isolated and plated at 2×10^6 cells/well in 2 mls of T-cell medium in 24-well plates and stimulated in vitro with a 1:500 dilution of UV-inactivated HSV-2 strain 333 for five days. At that time, 40 units/ml recombinant human IL-2 was added for an additional five to six days, giving rise to a short-term, HSV-specific cell line termed a B1 cell line.
Reactivity to individual HSV-2 proteins was assessed as follows. Proliferation assays were set up on 96-well round bottom microtiter plates, and each condition was performed in triplicate. To each well, 1×10^5 autologous irradiated (3300 rad gamma) PBMC were added as antigen presenting cells. To each well, 1×10^4 B1 cells were added. The following control substances were added: media, UV-treated mock virus preparation diluted 1:500, UV-treated HSV-2 strain 333 diluted 1:500, glycoproteins B or D or VP16 protein of HSV-2 (purified) at 4 micrograms per ml final concentration. The response to UV-treated HSV-2 was expected to be positive and served as a positive control for the viability and overall specificity of the cells. […]
Positive responses were scored if the stimulation index (mean cpm ^3H thymidine incorporation for test antigen/mean cpm ^3H thymidine incorporation for relevant control antigen) was greater than or equal to 4.0. […]

## RLRELNHIREHLNLPLVRSA [VP16 288-307]
CD4+ T cell clone
  reactivity with a CD4+ T cell clone: reactivity

## Cc1c2oc3c(C)ccc(C(=O)N[C@@H]4C(=O)N[C@H](C(C)C)C(=O)N5CCC[C@H]5C(=O)N(C)CC(=O)N(C)[C@@H](C(C)C)C(=O)O[C@@H]4C)c3nc-2c(C(=O)N[C@@H]2C(=O)N[C@H](C(C)C)C(=O)N3CCC[C@H]3C(=O)N(C)CC(=O)N(C)[C@@H](C(C)C)C(=O)O[C@@H]2C)c(N)c1=O [actinomycin D] (I: T[dV]P[Sar][NMeV] / II: T[dV]P[Sar][NMeV]; ester I:1-I:C, II:1-II:C; linker I:N-II:N via Actinocin(9to1))
[1]
  percent specific release: 35.8%
[2]
  percent specific release: 45.1%
[3]
  percent specific release: 49.2%

B1: VP16 of HSV-2: VP16 protein of HSV-2 (purified) (protein)
chain: MDLLVDDLFADADGVSPPPPRPAGGPKNTPAAPPLYATGRLSQAQLMPSPPMPVPPAALFNRLLDDLGFSAGPALCTMLDTWNEDLFSGFPTNADMYRECKFLSTLPSDVIDWGDAHVPERSPIDIRAHGDVAFPTLPATRDELPSYYEAMAQFFRGELRAREESYRTVLANFCSALYRYLRASVRQLHRQAHMRGRNRDLREMLRTTIADRYYRETARLARVLFLHLYLFLSREILWAAYAEQMMRPDLFDGLCCDLESWRQLACLFQPLMFINGSLTVRGVPVEARRLRELNHIREHLNLPLVRSAAAEEPGAPLTTPPVLQGNQARSSGYFMLLIRAKLDSYSSVATSEGESVMREHAYSRGRTRNNYGSTIEGLLDLPDDDDAPAEAGLVAPRMSFLSAGQRPRRLSTTAPITDVSLGDELRLDGEEVDMTPADALDDFDLEMLGDVESPSPGMTHDPVSYGALDVDDFEFEQMFTDAMGIDDFGG
[4]
  patients with proliferative responses in bulk cultures of lesion-infiltrating lymphocytes: 57%
B1 cell line
  % (subjects with positive response): 0%
  n (subjects with positive response): 0

Reference: patent US6814969B2, “Immunologically significant herpes simplex virus antigens and methods for using same” (University of Washington, priority 2001, dated 2004)
